According to ChEMBL document CHEMBL1140627, “Adaptive neuro-fuzzy inference system (ANFIS): a new approach to predictive modeling in QSAR applications: a study of neuro-fuzzy modeling of PCP-based NMDA receptor antagonists” (Bioorg Med Chem, 2007):

Biological target: Glutamate NMDA receptor
Assay: Displacement of [3H]TCP from NMDA receptor in rat brain membrane
Assay type: cell membranes

| Structure (SMILES) | Ki [nM] |
| --- | --- |
| NC1(c2ccc(F)cc2)CCCCC1 | 5130 |
| NC1(c2cccc(O)c2)CCCCC1 | 225 |
| c1ccc(C2(N3CCCCC3)CCCCC2)cc1 [PHENCYCLIDINE] | 70 |
